# Test results reported in article PMC11855827, “High-Throughput Screening of Five Compound Libraries for Anthelmintic Activity and Toxicity Leads to the Discovery of Two Flavonoid Compounds” (International Journal of Molecular Sciences, 2025).
# Test system: C. elegans
# Settings: Table S2, C. elegans SS assay, 110 μM, averages of 4 data points
Compound,Percentage of motility inhibition 0 h,Percentage of motility inhibition 24 h
SN‐38,34%,3%
CO[C@H]1C[C@H](O[C@H]2[C@H](C)O[C@@H](O[C@@H]3/C(C)=C/C[C@@H]4C[C@@H](C[C@]5(C=C[C@H](C)[C@@H](C6CCCCC6)O5)O4)OC(=O)[C@@H]4C=C(C)[C@@H](O)[C@H]5OC/C(=C\C=C\[C@@H]3C)[C@]54O)C[C@@H]2OC)O[C@@H](C)[C@@H]1O [Doramectin],66%,49%
CO/N=C(\C(=O)N[C@@H]1C(=O)N2C(C(=O)[O-])=C(C[n+]3cccc4c3CCC4)CS[C@H]12)c1csc(N)n1.O=S(=O)(O)O [Cefpirome (sulfate)],13%,0%
C[C@H]1CC[C@@]2(O)C(C)(C)[C@@H]3CC[C@@]2(C)[C@H]1C3 [Patchouli alcohol],24%,35%
C[C@@H](O)[C@H]1C(=O)N2C(C(=O)O)=C(S[C@@H]3CN[C@H](CNS(N)(=O)=O)C3)[C@H](C)[C@H]12.O [Doripenem (monohydrate)],15%,7%
COC(=O)C1=CO[C@@H](O[C@@H]2O[C@H](CO[C@@H]3O[C@H](CO)[C@@H](O)[C@H](O)[C@H]3O)[C@@H](O)[C@H](O)[C@H]2O)[C@@H]2C(CO)=CC[C@H]12 [Genipin 1-β-D-gentiobioside],0%,17%
COc1ccc(-c2oc3c(CC=C(C)C)c(O[C@@H]4O[C@H](CO)[C@@H](O)[C@H](O)[C@H]4O)cc(O)c3c(=O)c2O[C@@H]2O[C@@H](C)[C@H](O)[C@@H](O)[C@H]2O[C@@H]2OC[C@@H](O)[C@H](O)[C@H]2O)cc1 [Epimedin B],15%,32%
C=C(CCC=C(C)C)[C@H]1CC[C@]2(C)[C@@H]1[C@H](O)C[C@@H]1[C@@]3(C)CC[C@H](O)C(C)(C)[C@@H]3[C@@H](O[C@@H]3O[C@H](CO)[C@@H](O)[C@H](O)[C@H]3O)C[C@]12C [Ginsenoside Rk3],0%,19%
CC1(C)CC[C@@]2(CO)C(=C3C=C[C@@H]4[C@@]5(C)CC[C@H](O)[C@@](C)(CO)[C@@H]5CC[C@@]4(C)[C@]3(C)C[C@H]2O)C1 [Saikogenin D],27%,14%
"CC(C)C1=CC2C(CCC2(C)O)C(C)(O)CC1 (stereo not drawn) [1αH,5αH-Guaia-6-ene-4β,10β-diol]",0%,27%
COc1ccc(-c2cc(=O)c3c(O)c(OC)c(OC)cc3o2)cc1OC [5‐Desmethylsinensetin],2%,11%
COc1ccc2c(C)c3[n+](cc2c1OC)CCc1cc2c(cc1-3)OCO2.[Cl-] [13‐Methylberberine (chloride)],0%,0%
Mogroside IIA1,6%,47%
Nc1nc(=O)[nH]c2c1ncn2[C@@H]1O[C@H](CO)[C@@H](O)[C@H]1O [Crotonoside],0%,0%
COC1=C(C)C(=O)O[C@]12C(=O)C(C)=C1CCCCN3[C@H]([C@@H]4C[C@H](C)C(=O)O4)CC[C@@]132 [Protostemotinine],0%,22%
COc1cc(O)c2c(=O)cc(-c3ccccc3)oc2c1 [Tecto chrysin],0%,11%
C[C@H]1[C@H]2[C@H](O[C@@H]3O[C@H](CO)[C@@H](O)[C@H](O)[C@H]3O)OC=C(C(=O)O)[C@H]2C[C@@H]1O [8-Epiloganic acid],4%,15%
